The IC50 is the concentration needed to halve the response being measured.

GDP-bound KRAS protein (aa 1-169), containing both G12C and C118A amino acid substitutions, sequence (P01116 other isoform, or with tags, fused parts or gaps G12C/C118A): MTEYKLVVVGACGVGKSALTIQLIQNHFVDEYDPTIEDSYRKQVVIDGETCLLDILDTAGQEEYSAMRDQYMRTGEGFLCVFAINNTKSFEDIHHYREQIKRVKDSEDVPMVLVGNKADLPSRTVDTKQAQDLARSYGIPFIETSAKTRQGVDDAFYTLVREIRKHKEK

The first assay has as its target GDP-bound KRAS protein (aa 1-169), containing both G12C and C118A amino acid substitutions (Homo sapiens (Human), UniProt P01116, C118A/G12C). Kind of assay: Coupled nucleotide exchange assay (SOS-mediated nucleotide exchange, AlphaScreen). The assay is classed as biochemical. To be noted: 5 min compound pre-incubation. (Bead proximity is the source of the signal in Alpha formats.)
As to `C=CC(=O)N1CCN(c2nc(=O)n(-c3c(C)cc(N)nc3C(C)C)c3nc(-c4ccccc4F)c(Cl)cc23)[C@@H](C)C1` (single isomer, unassigned) [Example 183-1], the “Coupled exchange IC50 (5 min; μM)” value stood at 0.61 µM.
With `C=CC(=O)N1C[C@H](C)N(c2nc(=O)n(-c3c(C)cc(S(C)(=O)=O)cc3C(C)C)c3nc(-c4ccccc4F)c(Cl)cc23)C[C@H]1C` (single isomer, unassigned) [Example 215-1], the “Coupled exchange IC50 (5 min; μM)” value is 3.79 µM.
Take `C=CC(=O)N1C[C@H](C)N(c2nc(=O)n(-c3c(C)cc(CC)nc3C(C)C)c3nc(-c4ccccc4F)c(Cl)cc23)C[C@H]1C` (single isomer, unassigned) [Example 166-2]: the “Coupled exchange IC50 (5 min; μM)” value was determined as 1.032 µM.

The same assay, now with this note: read-out: Coupled exchange IC50 (5 min; μM); 5 min compound pre-incubation.
`C=CC(=O)N1C[C@H](C)N(c2nc(=O)n(-c3c(C)ccnc3C(C)C)c3nc(-c4cncnc4C(C)C)c(Cl)cc23)C[C@H]1C` (atropisomer, axis not shown; (M)) [Example 92-68, (M)-6-Chloro-4-[(2S,5R)-2,5-dimethyl-4-prop-2-enoyl-piperazin-1-yl]-1-(2-isopropyl-4-methyl-3-pyridyl)-7-(4-isopropylpy-rimidin-5-yl)pyrido[2,3-d]pyrimidin-2-one]: the IC50 was determined as 3.31 µM.
Take `C=CC(=O)N1C[C@H](C)N(c2nc(=O)n(-c3c(C)cc(P(C)(C)=O)cc3C(C)C)c3nc(-c4ccccc4F)c(Cl)cc23)C[C@H]1C` (single isomer, unassigned) [Example 102-7-2]: the IC50 worked out at 5.28 µM.
For `C=CC(=O)N1C[C@H](C)N(C2=NCC(=O)N(c3c(C)ccnc3C(C)C)c3nc(-c4ccccc4F)c(Cl)cc32)C[C@H]1C` [Example 219, 5-((2S,5R)-4-Acryloyl-2,5-dimethylpiperazin-1-yl)-7-chloro-8-(2-fluorophenyl)-1-(2-isopropyl-4-methylpyridin-3-yl)-1,3-dihydro-2H-pyrido[2,3-e][1,4]diazepin-2-one], the IC50 is 250 µM.
With `C=CC(=O)N1C[C@H](C)N(c2nc(=O)n(-c3c(C(C)C)ccnc3C(C)C)c3nc(-c4ccccc4C)c(F)cc23)C[C@H]1C` (single isomer, unassigned) [Example 125-5], the IC50 was 0.46 µM.
As for `C=CC(=O)N1C[C@H](C)N(c2nc(=N)n(CC(C)(C)C)c3nc(-c4ccccc4F)c(Cl)cc23)C[C@H]1C` [Example 150, 1-((2R,5S)-4-(6-Chloro-7-(2-fluorophenyl)-2-imino-1-neopentyl-1,2-dihydropyrido[2,3-d]pyrimidin-4-yl)-2,5-dimethylpiperazin-1-yl)prop-2-en-1-one], the IC50 amounted to 0.313 µM.
Take `C=CC(=O)N1C[C@H](C)N(c2nc(=O)n(-c3c(C(C)C)ncnc3C(C)C)c3nc(-c4ccccc4S(C)(=O)=O)c(Cl)cc23)C[C@H]1C` [Example 100-7, 6-Chloro-1-(4,6-diisopropylpyrimidin-5-yl)-4-[(2S,5R)-2,5-dimethyl-4-prop-2-enoyl-piperazin-1-yl]-7-(2-methylsulfonylphenyl) pyrido[2,3-d]pyrimidin-2-one]: the IC50 was found to be 5.1 µM.
Turning to `C=CC(=O)N1C[C@H](C)N(c2nc(=O)n(-c3c(C)cc([S+](C)[O-])cc3C(C)C)c3nc(-c4ccccc4F)c(Cl)cc23)C[C@@H]1C` (some centres unmarked) [compound 216], the IC50 was 2.01 µM.
For the compound `C=CC(=O)N1CCN(c2nc(=O)n(-c3c(C)ccnc3C(C)C)c3nc(Cl)c(Cl)cc23)CC1CC#N` (atropisomer, axis not shown; (M)) [Example 144-2, (M)-2-[4-[6,7-Dichloro-1-(2-isopropyl-4-methyl-3-pyridyl)-2-oxo-pyrido[2,3-d]pyrimidin-4-yl]-1-prop-2-enoyl-piperazin-2-yl]acetonitrile], the IC50 turned out to be 24.9 µM.
For `C=CC(=O)N1C[C@H](C)N(c2nc(=O)n(-c3c(C)ccnc3C(C)C)c3nc(N4CCCC4C(F)F)c(Cl)cc23)C[C@H]1C` (atropisomer, axis not shown; (M)) [Example 69-10, (M)-6-Chloro-7-[2-(difluoromethyl)pyrrolidin-1-yl]-4-[(2S,5R)-2,5-dimethyl-4-prop-2-enoyl-piperazin-1-yl]-1-(2-isopropyl-4-methyl-3-pyridyl)pyrido[2,3-d]pyrimidin-2-one], the IC50 was found to be 11 µM.
With `C=CC(=O)N1[C@H](C)CN(c2nc(=O)n(-c3c(C)ccnc3C(C)C)c3nc(-c4ccccc4F)c(Cl)nc23)C[C@@H]1C` [Example 224, 4-((3R,5S)-4-Acryloyl-3,5-dimethylpiperazin-1-yl)-6-chloro-7-(2-fluorophenyl)-1-(2-isopropyl-4-methylpyridin-3-yl)pteridin-2(1H)-one], the IC50 stood at 7.62 µM.
In the case of `C=CC(=O)N1C[C@H](C)N(c2nc(=O)n(-c3c(N(C)C)ccnc3C(C)C)c3nc(-c4c(F)cccc4NC(=O)C4CC4)c(Cl)cc23)C[C@H]1C` [Example 122-3, N-[2-[6-Chloro-1-[4-(dimethylamino)-2-isopropyl-3-pyridyl]-4-[(2S,5R)-2,5-dimethyl-4-prop-2-enoyl-piperazin-1-yl]-2-oxo-pyrido[2,3-d]pyrimidin-7-yl]-3-fluoro-phenyl]cyclopropanecarboxamide], the IC50 was 0.503 µM.
Regarding `C=CC(=O)N1C[C@H](C)N(c2nc(=O)n(-c3c(Cl)ncnc3C(C)C)c3nc(-c4ccccc4C)c(Cl)cc23)C[C@H]1C` (single isomer, unassigned) [Example 102-6-2], the IC50 came out at 0.726 µM.
On the same count and under the same terms, next, `C=CC(=O)N1C[C@H](C)N(c2nc(=O)n(-c3c(C)cc(CN(C)C)cc3C(C)C)c3nc(-c4ccccc4F)c(F)cc23)C[C@H]1C` (single isomer, unassigned) [Example 80-20-1]: 13.9 µM.
Take `CC(C)c1ncnc(C(C)C)c1-n1c(=O)nc(N2CCN(C(=O)/C=C/CN(C)C)C[C@@H]2C)c2cc(Cl)c(-c3ccccc3F)nc21` [Example 102-2, 6-Chloro-1-(4,6-diisopropylpyri-midin-5-yl)-4-[(2S)-4-[(E)-4-(dimethylamino)but-2-enoyl]-2-methyl-piperazin-1-yl]-7-(2-fluorophenyl) pyrido[2,3-d]pyrimidin-2-one]: the IC50 was determined as 1.23 µM.
Same read-out and setting: next, `C=CC(=O)N1C[C@H](C)N(c2nc(=O)n(-c3c(C)ccnc3C(C)C)c3nc(-c4cccnc4C4CC4)c(Cl)cc23)C[C@H]1C` (atropisomer, axis not shown; (M)) [Example 92-69, (M)-6-Chloro-7-(2-cyclopropyl-3-pyridyl)-4-[(2S,5R)-2,5-dimethyl-4-prop-2-enoyl-piperazin-1-yl]-1-(2-isopropyl-4-methyl-3-pyridyl)pyrido [2,3-d]pyrimidin-2-one]: 1.36 µM; `C=CC(=O)N1CCN(c2nc(=O)n(CC(C)(C)C)c3ncccc23)CC1` [Example 100-6, 1-(2,2-dimethylpropyl)-4-(4-prop-2-enoylpiperazin-1-yl)pyrido[2,3-d]pyrimidin-2-one]: 250 µM; `C=CC(=O)N1CCN(c2nc(=O)n(-c3c(C)ccnc3C(C)C)c3nc(-c4c(O)cccc4F)c(F)cc23)C(C)C1C` (single isomer, unassigned) [Example 124-14-2, 4-[cis-2,3-dimethyl-4-prop-2-enoyl-piperazin-1-yl]-6-fluoro-7-(2-fluoro-6-hydroxy-phenyl)-1-(2-isopropyl-4-methyl-3-pyridyl)pyrido[2,3-d]pyrimidin-2-one]: 59.5 µM.
